Laboratory results: patent publication US11384115B2, “Nuclear sulfated oxysterol, potent regulator of lipid homeostasis, for therapy of hypercholesterolemia, hypertriglycerides, fatty liver diseases, and atherosclerosis” (Virginia Commonwealth University, priority 2004, dated 2022)

Assays:
HepG2 cells = assay: Cholesterol levels in microsomal fractions by HPLC after cholesterol oxidase; type: cell-based, human; conditions: 0-25 μM
HMG CoA reductase mRNA = HMG CoA reductase mRNA by real-time RT-PCR in HepG2 cells; type: cell-based, human; conditions: for inhibition of HMG CoA reductase mRNA: HepG2, lipid-depleted serum media
Protocol: HepG2 cells were grown in MEM containing non-essential amino acids, 0.03M NaHCO3, 10% FBS, 1 mM L-glutamine, 1 mM sodium pyruvate and 1% Pen/Strep and incubated at 37° C. in 5% CO2. When cells reached at ˜90% confluency, the oxysterols in DMSO or in ethanol (final concentration, 0.1%) and/or [1-^14C]acetate for cholesterol synthesis was added or otherwise as indicated. Microsomal and cytosol fractions were isolated from broken cells as described previously (10).
Total RNA was isolated from HepG2 cells using SV Total RNA Isolation Kit (Promega). Two μg of total RNA was used for first-strand cDNA synthesis as recommended by manufacture (Invitrogen). Real-time PCR was performed using SYBR Green on ABI 7500 Fast Real-Time PCR System (Applied Biosystems). The final reaction mixture contained 5 ng of cDNA, 100 nM of each primer, 10 μl of 2×SYBR® Green PCR Master Mix (Applied Biosystems), and RNase-free water to complete the reaction mixture volume to 20 μl. All reactions were performed in triplicate. The PCR was carried out for 40 cycles at 95° C. for 15 s and 60° C. for 1 min. The fluorescence was read during the reaction, allowing a continuous monitoring of the amount of PCR product. The data was normalized to internal control-β-actin or GAPDH mRNA. The sequences of primers for HMG CoA reductase used in real-time PCR are […] (SEQ ID NO: 1) (Forward) and […] (SEQ ID NO: 2) (Reverse).

SREBP-2 = assay: Western blot of SREBP-2 activation in HepG2 cells; type: cell-based, human
Protocol: Western blot analysis of SREBPs activation following 25HC3S or 25HC treatment in HepG2 cells. Total proteins were extracted from HepG2 cells treated with 25HC in ethanol (0.1%) (FIGS. 18A and 18C) or 25HC3S in DMSO (0.1%) (FIGS. 18B and 18D), cultured in the media in absence (FIGS. 18A and 18B) or presence (FIGS. 18C and 18D) of mevinolin (50 mM) and mevalonate (0.5 mM). SREBP-1 and SREBP-2 protein levels in the cells were determined by Western blot analysis. The extracted protein (100 μg) was loaded onto each lane for each condition as indicated. The data represent a typical result from one of three independent experiments.
Microsomal proteins (80 μg) were separated on a 7.5% SDS-polyacrylamide denaturing gel according to the method of Laemmli (14). Following SDS-PAGE (Hoefer Vertical Slab Gel Unit; Heofer, San Francisco, Calif.), proteins were electrophoretically transferred overnight (4° C.) to Immobilon-P membranes using a Hoefer Trans Blot Electrophoretic Transfer cell. The membranes were then blocked for 90 minutes (25° C.) in blocking buffer (PBS, pH 7.4, 0.1% Tween, 5% non-fat dry milk). Proteins were then incubated for 90 minutes (25° C.) or overnight (4° C.) with a rabbit polyclonal IgG (1:2500-1:20,000) against human SREBP-1, SREBP-2, or HMG CoA reductase. […] Protein bands were detected using the Amersham ECL plus Kit.

PPARγ = molecular target: T1, PPARγ (Homo sapiens, UniProt P37231); assay: Western blot of nuclear PPARγ levels in THP-1 macrophages; type: cell-based; conditions: for nuclear PPARγ protein levels: THP-1 macrophages, 4 hrs
T1 construct: THP-1 monocytes were differentiated to macrophages by adding 100 nM of phorbol 12-myristate 13-acetate (PMA); endogenous in cells; host or cells: THP-1 monocyte-derived macrophages (human, ATCC)
T1 sequence (P37231 1-505): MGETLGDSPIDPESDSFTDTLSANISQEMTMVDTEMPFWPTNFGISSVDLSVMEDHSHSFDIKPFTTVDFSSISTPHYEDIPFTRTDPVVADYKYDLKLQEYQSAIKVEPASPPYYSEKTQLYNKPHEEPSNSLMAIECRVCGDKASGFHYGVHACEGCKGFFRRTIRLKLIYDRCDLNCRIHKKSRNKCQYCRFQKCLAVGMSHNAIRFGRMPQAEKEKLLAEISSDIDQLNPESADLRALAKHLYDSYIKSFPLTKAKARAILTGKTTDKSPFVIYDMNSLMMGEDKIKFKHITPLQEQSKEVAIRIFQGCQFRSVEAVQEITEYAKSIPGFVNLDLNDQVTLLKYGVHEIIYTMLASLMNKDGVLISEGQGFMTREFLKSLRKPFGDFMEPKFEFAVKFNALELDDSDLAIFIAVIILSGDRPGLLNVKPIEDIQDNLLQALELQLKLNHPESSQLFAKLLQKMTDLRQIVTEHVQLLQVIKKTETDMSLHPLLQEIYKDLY
Protocol: FIGS. 21A and 21B. Effects of 25HC3S and 25HC on PPARγ protein levels in THP-1 macrophages. A, THP-1 macrophages were treated with 25HC3S (top panel) or 25HC (middle panel) at different concentration as indicated for 4 hrs. The nuclear PPARγ levels were analyzed by Western blot. […] Expression levels were normalized to Lamin as shown in the bottom panels. The data represent one typical result out of three experiments.
Human THP-1 monocytes and H441 cells were purchased from the American Type Culture Collection (Manassas, Va.) and maintained according to the supplier's protocols. THP-1 monocytes were differentiated to macrophages by adding 100 nM of phorbol 12-myristate 13-acetate (PMA). When cells reached 90% confluence, oxysterols in DMSO or in ethanol (the final concentration in media was <0.1%) were added as indicated. The cells were harvested at the times as indicated. Nuclear and cytosolic fractions were isolated using NE-PER®, Nuclear and Cytoplasmic Extraction Reagents (Pierce, Rockford, Ill. Western blot analysis of nuclear PPAR and intracellular I B levels
Fifty μg of total cell lysates or nuclear protein extracts, otherwise as indicated, were separated on 10% SDS-PAGE gels and transferred onto a polyvinylidene difluoride membrane as described previously. Membranes were blocked in TBS containing 5% of nonfat dried milk for 1 hr. The specific proteins were determined by incubation with specific antibodies against human PPAR or IκB overnight at 4° C. with shaking. After washing, the membrane was incubated in a 1:3,000 dilution of a secondary antibody (goat anti-rabbit or anti-mouse IgG-HP conjugate; Bio-Rad, Hercules, Calif.) at room temperature for 1 hr in the washing buffer (Tris buffered solution containing 0.5% Tween 20). The protein bands were visualized using Western Lightening Chemiluminescence Reagent (Perkin-Elmer, Waltham, Mass.). The expression levels were normalized to Lamin.

PPARγ mRNA = PPARγ mRNA by real time RT-PCR in macrophages; type: cell-based, human
Protocol: Total RNA was isolated from THP-1 derived macrophages following treatments for 6 hrs otherwise as indicated using SV Total RNA Isolation Kit (Promega, Wisconsin, Wis.), which includes DNase treatment. Two microgram of total RNA was used for first-strand cDNA synthesis as recommended by manufacturer (Invitrogen, Carlsbad, Calif.). Real-time RT-PCR was performed using SYBR Green as indicator on ABI 7500 Fast Real-Time PCR System (Applied Biosystems, Foster City, Calif.). The final reaction mixture contained 10 ng of cDNA, 100 nM of each primer, 10 μl of 2×SYBR® Green PCR Master Mix (Applied Biosystems, Foster City, Calif.), and RNase-free water to complete the reaction mixture volume to 20 μl. All reactions were performed in triplicate. PCR was carried out for 40 cycles of 95° C. for 15 s and 60° C. for 1 min. The fluorescence was read during the reaction, allowing a continuous monitoring of the amount of PCR product. The data was normalized to internal control GAPDH.

IκB = IκB mRNA (RT-PCR) and protein (Western blot) in THP-1 macrophages; type: cell-based, human; conditions: for IκB protein levels: Western blot, 24 hrs; for increase of IκB mRNA levels: macrophages; for IκB mRNA level: real time RT-PCR, 6 hrs
Protocol: FIG. 25A-C. […] The Western blot data represents one of three experiments.
Fifty μg of total cell lysates or nuclear protein extracts, otherwise as indicated, were separated on 10% SDS-PAGE gels and transferred onto a polyvinylidene difluoride membrane as described previously [31]. Membranes were blocked in TBS containing 5% of nonfat dried milk for 1 hr. The specific proteins were determined by incubation with specific antibodies against human PPAR or IκB overnight at 4° C. with shaking. After washing, the membrane was incubated in a 1:3,000 dilution of a secondary antibody (goat anti-rabbit or anti-mouse IgG-HP conjugate; Bio-Rad, Hercules, Calif.) at room temperature for 1 hr in the washing buffer (Tris buffered solution containing 0.5% Tween 20). The protein bands were visualized using Western Lightening Chemiluminescence Reagent (Perkin-Elmer, Waltham, Mass.). The expression levels were normalized to Lamin.

[1] = HepG2, in the presence of serum

| SMILES | cholesterol levels in the microsomal fraction (HepG2 cells) | cholesterol levels in the microsomal fraction (HepG2 cells; listed as nuclear oxysterol) | HMG CoA reductase mRNA (HMG CoA reductase mRNA; HepG2, 10% FBS media) | inhibition of the mRNA of HMG CoA reductase and SREBP1 (HMG CoA reductase mRNA; HepG2, at 12 μM) [%] | inhibition of HMG CoA reductase (HMG CoA reductase mRNA; [1]) [%] | inhibition of HMG CoA reductase mRNA (HMG CoA reductase mRNA) | mature form of SREBP-2 (SREBP-2) | nuclear PPARγ protein levels (PPARγ) | nuclear PPARγ levels in the presence of the antagonist T0070907 (PPARγ; preincubated with 1 μM of T0070907 for 2 hrs) | PPARγ mRNA levels (PPARγ mRNA) | IκB protein levels (IκB) | increase of IκB mRNA levels (IκB; 12 μM) [folds] | increase of IκB mRNA levels (IκB; in the presence of TNFα) [folds] | IκB mRNA level (IκB) | inhibition of the mRNA of HMG CoA reductase and SREBP1 (HMG CoA reductase mRNA; HepG2, at 3 μM) [%] | inhibition of HMG CoA reductase (HMG CoA reductase mRNA; HepG2, lipids depleted serum) [%] | rosiglitazone-increased nuclear PPARγ levels (PPARγ; preincubated with 1 μM of rosiglitazone for 2 hrs, 25HC for 4 hrs) |
| --- | --- | --- | --- | --- | --- | --- | --- | --- | --- | --- | --- | --- | --- | --- | --- | --- | --- |
| C[C@H](CCCC(C)(C)O)[C@H]1CC[C@H]2[C@@H]3CC=C4C[C@@H](OS(=O)(=O)O)CC[C@]4(C)[C@H]3CC[C@]12C [25HC3S, 5-cholesten-3β, 25-diol 3-sulphate] | significantly decreased | significant decrease | concentration dependent decreases | 85 | 70 | still strongly inhibits | only slightly decreased | substantially increased | failed to increase the nuclear PPARγ levels to its maxima | neither 25HC nor 25HC3S was able to change | increased | 2.5 | 6 | significantly increased |  |  |  |
| C[C@H](CCCC(C)(C)O)[C@H]1CC[C@H]2[C@@H]3CC=C4C[C@@H](O)CC[C@]4(C)[C@H]3CC[C@]12C [25HC, 25-hydroxycholesterol, reference compound] | significantly decreased |  |  |  | 70 | more potent inhibition than 25HC3S | only slightly decreased | decreased |  | neither 25HC nor 25HC3S was able to change | decreased |  |  | no significantly changed | 85 | 90 | significantly inhibited |
